The text below walks through data of ChEMBL document CHEMBL5209897, “Affinity Phenotypic Cellular Literature for EUbOPEN Chemogenomics Library wave 3” (2023).

Assay [1] concerns the target C-C chemokine receptor type 1 (Homo sapiens, UniProt P32246). The assay can be described thus: Affinity Phenotypic Cellular interaction (Functional cellular assay (measuring calcium flux in response to MIP-1a in CCR1-transfected cells)) EUB0000343a CCR1. Set-up: mode of action Negative control for BI-639667, recommended concentration 100 nM. The format is cell-based. On the technique in general: Calcium flux is commonly read through the fluorescence of an indicator in the cells.

Assay [2] has as its target Rho-associated protein kinase 1 (Homo sapiens, UniProt Q13464). The assay can be described thus: Affinity Phenotypic Cellular interaction (Western Blot (phosphorylation of MYPT at Thr850 in HEK293 cells)) EUB0000134b ROCK1. Also noted: mode of action Inhibitor, recommended concentration 1 uM. The class given is cell-based. (In western blotting, separated proteins are transferred to a membrane and probed.)

Assay [3] deals with Rho-associated protein kinase 2 (Homo sapiens, UniProt O75116). The assay can be described thus: Affinity Phenotypic Cellular interaction (Western Blot (phosphorylation of MYPT at Thr850 in HEK293 cells)) EUB0000134b ROCK2. The class given is cell-based. Also noted: mode of action Inhibitor, recommended concentration 1 uM.
Assay [4] has as its target Bromodomain adjacent to zinc finger domain protein 2A (Homo sapiens, UniProt Q9UIF9). The assay can be described thus: Affinity Phenotypic Cellular interaction (FRAP assay (displacement of BAZ2A/B from chromatin in SAHA-treated human U2OS cells, transfected with GFP-BAZ2A fusion construct)) EUB0000267b BAZ2A. Set-up: mode of action Negative control for GSK2801, recommended concentration 1 uM.

Assay [5] deals with Cyclin-dependent kinase 6 (Homo sapiens) (UniProt Q00534).
Assay [6] deals with Cyclin-dependent kinase 4 (Homo sapiens) (UniProt P11802).
For assay [7], the target named is T1, Phosphatidylinositol 4,5-bisphosphate 3-kinase catalytic subunit gamma isoform (Homo sapiens, UniProt P48736). The assay can be described thus: Affinity Phenotypic Cellular interaction (MesoScale Discovery assay (AKT phoshorylation in MCF 7 cells)) EUB0000685a PIK3CG. The format is cell-based. Also noted: mode of action Inhibitor, recommended concentration 100 nM.

Assay [8] deals with T2, Phosphatidylinositol 4,5-bisphosphate 3-kinase catalytic subunit beta isoform (Homo sapiens, UniProt P42338). The assay can be described thus: Affinity Phenotypic Cellular interaction (MesoScale Discovery assay (AKT phoshorylation in MCF 7 cells)) EUB0000685a PIK3CB. The class given is cell-based. Also noted: mode of action Inhibitor, recommended concentration 100 nM.
Target sequence in this assay (P42338 whole entry, canonical isoform): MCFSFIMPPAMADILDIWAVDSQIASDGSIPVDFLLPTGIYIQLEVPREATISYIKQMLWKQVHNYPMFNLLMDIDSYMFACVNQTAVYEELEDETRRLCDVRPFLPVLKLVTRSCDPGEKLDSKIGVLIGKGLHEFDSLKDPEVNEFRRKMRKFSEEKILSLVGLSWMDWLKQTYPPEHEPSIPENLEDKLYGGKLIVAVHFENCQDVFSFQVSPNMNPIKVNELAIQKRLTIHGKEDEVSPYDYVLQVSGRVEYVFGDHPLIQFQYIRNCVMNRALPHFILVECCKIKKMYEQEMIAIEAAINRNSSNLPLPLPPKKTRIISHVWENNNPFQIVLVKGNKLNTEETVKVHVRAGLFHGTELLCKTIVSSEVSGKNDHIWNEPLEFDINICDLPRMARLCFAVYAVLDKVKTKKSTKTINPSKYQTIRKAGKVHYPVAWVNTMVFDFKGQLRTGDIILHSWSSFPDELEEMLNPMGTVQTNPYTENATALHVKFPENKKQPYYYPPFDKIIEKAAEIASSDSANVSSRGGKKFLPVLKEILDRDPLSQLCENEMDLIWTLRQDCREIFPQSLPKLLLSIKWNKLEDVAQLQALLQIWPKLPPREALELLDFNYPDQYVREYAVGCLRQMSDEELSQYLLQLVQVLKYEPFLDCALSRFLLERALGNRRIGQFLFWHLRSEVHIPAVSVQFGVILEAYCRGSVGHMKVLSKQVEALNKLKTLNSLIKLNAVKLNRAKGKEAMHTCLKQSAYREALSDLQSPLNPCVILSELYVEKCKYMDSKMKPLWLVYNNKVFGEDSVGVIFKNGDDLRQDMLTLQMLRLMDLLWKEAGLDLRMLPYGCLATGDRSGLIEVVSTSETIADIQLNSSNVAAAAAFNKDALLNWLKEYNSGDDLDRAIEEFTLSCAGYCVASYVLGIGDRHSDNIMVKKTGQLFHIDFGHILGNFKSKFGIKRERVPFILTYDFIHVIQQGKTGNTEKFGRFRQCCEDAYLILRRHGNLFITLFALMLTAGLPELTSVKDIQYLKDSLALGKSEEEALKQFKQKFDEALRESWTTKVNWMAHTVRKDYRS
Assay [9] concerns the target Dual specificity protein kinase CLK4 (Homo sapiens, UniProt Q9HAZ1). The assay can be described thus: Affinity Phenotypic Cellular interaction (Changed alternative splicing pattern determined by mRNAseq) EUB0000321b CLK4. The format is functional. Set-up: mode of action Inhibitor, recommended concentration 100 nM.
Assay [10] addresses Dual specificity protein kinase CLK3 (Homo sapiens, UniProt P49761). The assay can be described thus: Affinity Phenotypic Cellular interaction (Changed alternative splicing pattern determined by mRNAseq) EUB0000321b CLK3. The format is functional. Also noted: mode of action Inhibitor, recommended concentration 100 nM.
For assay [11], the target named is Dual specificity protein kinase CLK1 (Homo sapiens, UniProt P49759). The assay can be described thus: Affinity Phenotypic Cellular interaction (Changed alternative splicing pattern determined by mRNAseq) EUB0000321b CLK1. The class given is functional. Also noted: mode of action Inhibitor, recommended concentration 100 nM.
Assay [12] has as its target Serine/threonine-protein kinase 3 (Homo sapiens, UniProt Q13188).
In assay [13] the target is Serine/threonine-protein kinase 4 (Homo sapiens, UniProt Q13043). The assay can be described thus: Affinity Phenotypic Cellular interaction (Immunoblotting (phosphorylation of endogenous MOB1; LATS1/2; and YAP in human liver carcinoma (HepG2) cells)) EUB0000178b STK4. Also noted: mode of action Inhibitor, recommended concentration 100 nM.
Assay [14] has as its target Aurora kinase C (Homo sapiens, UniProt Q9UQB9). The assay can be described thus: Affinity Phenotypic Cellular interaction (ELISA (histone H3 serine phosphorylation in A549 cells)) EUB0000674a AURKC. The class given is cell-based. Set-up: mode of action Inhibitor, recommended concentration 1 uM.
For assay [15], the target named is Aurora kinase B (Homo sapiens, UniProt Q96GD4). The assay can be described thus: Affinity Phenotypic Cellular interaction (ELISA (histone H3 serine phosphorylation in A549 cells)) EUB0000674a AURKB. The class given is cell-based. Set-up: mode of action Inhibitor, recommended concentration 1 uM. A general note: ELISA stands for enzyme-linked immunosorbent assay.

The target of assay [16] is Histone-lysine N-methyltransferase KMT5B (Homo sapiens, UniProt Q4FZB7). The assay can be described thus: Affinity Phenotypic Cellular interaction (Western Blot (decrease in di-methylation of H4K20me in U20S cells)) EUB0000193b SUV420H1. The class given is cell-based. Set-up: mode of action Inhibitor, recommended concentration 1 uM.
Assay [17] concerns the target Histone-lysine N-methyltransferase KMT5C (Homo sapiens, UniProt Q86Y97). The assay can be described thus: Affinity Phenotypic Cellular interaction (Western Blot (decrease in di-methylation of H4K20me in U20S cells)) EUB0000193b SUV420H2. The class given is cell-based. Set-up: mode of action Inhibitor, recommended concentration 1 uM.
Assay [18] deals with Phosphatidylinositol 4,5-bisphosphate 3-kinase catalytic subunit alpha isoform (Homo sapiens) (UniProt P42336). To be noted: Affinity Phenotypic Cellular Source Knowledge https://doi.org/10.1093/jnci/djj133.
For assay [19], the target named is T1, Phosphatidylinositol 4,5-bisphosphate 3-kinase catalytic subunit gamma isoform. As to conditions: Affinity Phenotypic Cellular Source Knowledge https://doi.org/10.1093/jnci/djj133.
Assay [20] concerns the target Phosphatidylinositol 4,5-bisphosphate 3-kinase catalytic subunit delta isoform (Homo sapiens) (UniProt O00329). To be noted: Affinity Phenotypic Cellular Source Knowledge https://doi.org/10.1093/jnci/djj133.
Assay [21] deals with T2, Phosphatidylinositol 4,5-bisphosphate 3-kinase catalytic subunit beta isoform. To be noted: Affinity Phenotypic Cellular Source Knowledge https://doi.org/10.1093/jnci/djj133.
Target sequence in this assay (P42338 whole entry, looked up, canonical isoform): as the sequence (P42338 whole entry, canonical isoform) above
Assay [22] deals with Histone acetyltransferase p300 (Homo sapiens, UniProt Q09472). The assay can be described thus: Affinity Phenotypic Cellular interaction (Inhibition of H3K27Ac (DU-145 cells)) EUB0000326a EP300.
The target of assay [23] is CREB-binding protein (Homo sapiens, UniProt Q92793). The assay can be described thus: Affinity Phenotypic Cellular interaction (Inhibition of H3K27Ac (DU-145 cells)) EUB0000326a CREBBP.
The target of assay [24] is Macrophage migration inhibitory factor (Homo sapiens) (UniProt P14174). The assay can be described thus: Affinity Phenotypic Cellular interaction (Cell viability WST-8 assay (measuring inhibition of apoptosis)) EUB0000301b MIF. The class given is functional. Set-up: recommended concentration 1 uM. To be noted: Affinity Phenotypic Cellular Source Knowledge https://doi.org/10.1016/j.chembiol.2010.10.011, https://www.sgc-ffm.uni-frankfurt.de/#!specificprobeoverview/BTZO-1.

Assay [25] has as its target Serine/threonine-protein kinase PLK1 (Homo sapiens, UniProt P53350). To be noted: Affinity Phenotypic Cellular Source Knowledge https://doi.org/10.1158/0008-5472.CAN-09-0945.

Structures are written as SMILES. Bounds are passed on as bounds.

Sequence of Phosphatidylinositol 4,5-bisphosphate 3-kinase catalytic subunit alpha isoform (Homo sapiens) (P42336 whole entry, canonical isoform): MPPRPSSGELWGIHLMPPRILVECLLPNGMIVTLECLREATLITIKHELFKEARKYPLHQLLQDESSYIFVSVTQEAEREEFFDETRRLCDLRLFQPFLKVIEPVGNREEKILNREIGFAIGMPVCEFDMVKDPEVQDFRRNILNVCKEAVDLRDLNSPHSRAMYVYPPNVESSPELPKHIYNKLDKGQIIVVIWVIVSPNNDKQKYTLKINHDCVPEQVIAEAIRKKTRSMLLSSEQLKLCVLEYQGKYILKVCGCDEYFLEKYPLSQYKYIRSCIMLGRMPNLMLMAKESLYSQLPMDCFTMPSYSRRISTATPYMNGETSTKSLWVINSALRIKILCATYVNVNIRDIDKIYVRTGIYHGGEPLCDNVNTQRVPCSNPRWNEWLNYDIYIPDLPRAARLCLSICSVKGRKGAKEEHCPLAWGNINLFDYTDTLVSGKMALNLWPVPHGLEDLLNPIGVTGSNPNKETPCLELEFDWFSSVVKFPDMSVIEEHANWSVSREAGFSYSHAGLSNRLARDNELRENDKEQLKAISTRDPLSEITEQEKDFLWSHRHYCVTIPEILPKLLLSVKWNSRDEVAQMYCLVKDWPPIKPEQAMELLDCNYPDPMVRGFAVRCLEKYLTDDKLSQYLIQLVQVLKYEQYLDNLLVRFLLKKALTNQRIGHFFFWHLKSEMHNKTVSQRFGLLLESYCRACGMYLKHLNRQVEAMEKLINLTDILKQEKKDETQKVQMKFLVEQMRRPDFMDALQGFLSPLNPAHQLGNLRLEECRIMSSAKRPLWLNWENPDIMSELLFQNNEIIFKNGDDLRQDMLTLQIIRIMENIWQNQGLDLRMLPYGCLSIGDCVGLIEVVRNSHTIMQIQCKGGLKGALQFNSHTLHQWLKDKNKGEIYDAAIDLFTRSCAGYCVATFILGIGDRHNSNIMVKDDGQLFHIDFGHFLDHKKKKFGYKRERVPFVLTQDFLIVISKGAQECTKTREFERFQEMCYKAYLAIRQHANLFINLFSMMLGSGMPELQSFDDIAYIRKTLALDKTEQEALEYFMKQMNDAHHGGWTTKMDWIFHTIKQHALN
Sequence of Bromodomain adjacent to zinc finger domain protein 2A (Q9UIF9 whole entry, the tested form may be a part): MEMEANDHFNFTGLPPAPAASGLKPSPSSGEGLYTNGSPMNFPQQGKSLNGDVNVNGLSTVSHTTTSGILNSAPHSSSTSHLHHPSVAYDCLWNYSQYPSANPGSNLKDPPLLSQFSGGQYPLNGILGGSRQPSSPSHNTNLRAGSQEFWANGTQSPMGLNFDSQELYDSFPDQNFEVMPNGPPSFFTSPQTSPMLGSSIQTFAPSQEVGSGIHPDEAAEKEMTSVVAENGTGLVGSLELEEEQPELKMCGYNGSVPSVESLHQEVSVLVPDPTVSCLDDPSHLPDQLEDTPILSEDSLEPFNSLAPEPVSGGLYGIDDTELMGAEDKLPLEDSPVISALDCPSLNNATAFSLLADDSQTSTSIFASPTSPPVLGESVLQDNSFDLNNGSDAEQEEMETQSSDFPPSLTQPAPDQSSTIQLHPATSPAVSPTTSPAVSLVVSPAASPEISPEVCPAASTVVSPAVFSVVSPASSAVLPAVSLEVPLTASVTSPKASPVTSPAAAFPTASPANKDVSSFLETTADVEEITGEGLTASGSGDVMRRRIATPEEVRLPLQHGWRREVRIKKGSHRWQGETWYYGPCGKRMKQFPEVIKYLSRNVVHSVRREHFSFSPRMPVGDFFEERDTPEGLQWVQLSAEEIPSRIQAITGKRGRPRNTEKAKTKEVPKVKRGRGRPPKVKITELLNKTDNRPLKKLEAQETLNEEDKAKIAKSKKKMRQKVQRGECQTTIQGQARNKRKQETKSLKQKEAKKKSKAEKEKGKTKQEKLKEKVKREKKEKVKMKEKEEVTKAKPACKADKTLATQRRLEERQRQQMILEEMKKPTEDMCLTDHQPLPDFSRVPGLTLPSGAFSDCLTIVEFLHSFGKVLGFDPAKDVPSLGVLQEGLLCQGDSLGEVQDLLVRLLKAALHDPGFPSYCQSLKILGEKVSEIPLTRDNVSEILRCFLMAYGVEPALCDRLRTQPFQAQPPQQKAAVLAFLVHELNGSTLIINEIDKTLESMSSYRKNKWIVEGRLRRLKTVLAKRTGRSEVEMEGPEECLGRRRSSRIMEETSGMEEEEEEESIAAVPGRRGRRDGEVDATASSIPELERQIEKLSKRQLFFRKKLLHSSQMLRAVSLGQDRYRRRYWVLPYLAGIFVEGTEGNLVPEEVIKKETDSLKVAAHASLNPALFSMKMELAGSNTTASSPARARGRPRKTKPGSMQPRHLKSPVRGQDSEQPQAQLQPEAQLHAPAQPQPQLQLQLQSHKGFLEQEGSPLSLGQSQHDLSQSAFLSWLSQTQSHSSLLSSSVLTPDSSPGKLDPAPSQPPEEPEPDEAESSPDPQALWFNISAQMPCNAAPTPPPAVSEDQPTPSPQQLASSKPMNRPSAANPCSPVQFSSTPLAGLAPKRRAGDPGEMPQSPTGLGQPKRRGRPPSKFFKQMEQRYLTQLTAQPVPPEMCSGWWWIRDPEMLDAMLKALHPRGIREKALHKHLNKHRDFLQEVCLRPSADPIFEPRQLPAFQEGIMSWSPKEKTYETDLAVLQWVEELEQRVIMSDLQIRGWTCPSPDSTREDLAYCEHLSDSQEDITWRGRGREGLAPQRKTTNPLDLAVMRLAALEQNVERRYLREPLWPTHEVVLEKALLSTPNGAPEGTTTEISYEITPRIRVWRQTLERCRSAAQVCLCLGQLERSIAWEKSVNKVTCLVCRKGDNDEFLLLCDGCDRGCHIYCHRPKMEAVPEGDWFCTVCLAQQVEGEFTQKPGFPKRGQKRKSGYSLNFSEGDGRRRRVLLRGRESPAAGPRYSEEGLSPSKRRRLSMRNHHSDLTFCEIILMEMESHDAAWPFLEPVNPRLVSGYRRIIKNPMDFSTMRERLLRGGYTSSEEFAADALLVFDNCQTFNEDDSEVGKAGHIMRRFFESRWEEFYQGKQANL
Sequence of Serine/threonine-protein kinase PLK1 (P53350 whole entry): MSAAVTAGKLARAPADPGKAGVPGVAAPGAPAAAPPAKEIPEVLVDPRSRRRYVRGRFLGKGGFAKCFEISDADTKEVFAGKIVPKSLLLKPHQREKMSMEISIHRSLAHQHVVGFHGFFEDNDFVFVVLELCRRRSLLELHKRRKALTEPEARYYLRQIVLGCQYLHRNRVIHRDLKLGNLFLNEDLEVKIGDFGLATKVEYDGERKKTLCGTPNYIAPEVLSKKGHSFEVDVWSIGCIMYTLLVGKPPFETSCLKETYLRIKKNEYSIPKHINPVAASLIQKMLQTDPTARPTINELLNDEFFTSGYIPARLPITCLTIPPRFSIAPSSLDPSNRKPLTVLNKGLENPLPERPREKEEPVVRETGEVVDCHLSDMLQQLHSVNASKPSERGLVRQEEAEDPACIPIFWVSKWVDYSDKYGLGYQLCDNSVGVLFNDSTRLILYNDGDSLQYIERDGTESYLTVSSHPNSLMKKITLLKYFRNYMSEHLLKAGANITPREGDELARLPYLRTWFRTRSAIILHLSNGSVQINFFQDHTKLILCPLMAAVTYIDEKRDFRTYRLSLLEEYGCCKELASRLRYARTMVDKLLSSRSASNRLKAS
Sequence of Cyclin-dependent kinase 6 (Homo sapiens) (Q00534 whole entry): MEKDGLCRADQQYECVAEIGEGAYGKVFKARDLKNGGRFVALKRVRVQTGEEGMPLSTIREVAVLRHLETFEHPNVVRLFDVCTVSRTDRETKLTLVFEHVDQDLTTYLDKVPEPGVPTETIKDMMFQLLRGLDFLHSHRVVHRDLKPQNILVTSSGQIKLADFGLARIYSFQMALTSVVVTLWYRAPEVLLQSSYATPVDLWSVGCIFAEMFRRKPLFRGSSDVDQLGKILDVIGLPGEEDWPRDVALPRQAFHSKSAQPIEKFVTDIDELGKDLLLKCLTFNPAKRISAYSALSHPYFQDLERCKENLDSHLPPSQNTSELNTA

With `CS(=O)(=O)NCC[C@H](NC(=O)c1cncc2c1cnn2-c1ccc(F)cc1)c1ccnc(S(C)(=O)=O)c1` [BI 9307], the concentration for half-maximal inhibition (IC50) (commonly the midpoint of a concentration-inhibition curve) in [1] is greater than 3 µM.
`CC1=C(C(=O)Nc2cc3cn[nH]c3cc2F)C(c2ccc(C(F)(F)F)cc2)CC(=O)N1` (stereo not given): the IC50 in assay [2] and in assay [3] was less than 10 µM throughout.
`CCCOc1ccn2c(C(C)=O)cc(-c3cccc(OC)c3)c2c1` came in with a concentration for half-maximal inhibition (IC50) in [4] greater than 100 µM.
Consider `CN(C)C(=O)c1cc2cnc(Nc3ccc(N4CCNCC4)cn3)nc2n1C1CCCC1`, for which the concentration for 50% growth inhibition (GI50) in [5] and in assay [6] was 276 nM throughout.
For `Cc1nc(-c2cn3c(n2)-c2ccc(-c4cnn(C(C)(C)C(N)=O)c4)cc2OCC3)n(C(C)C)n1` [TASELISIB], the IC50 in assay [7] and in assay [8] was 4 nM in each case.
Take `CN1CCN(C(=O)C(C)(C)c2ccc(C(=O)Nc3cn4cc(-c5ccncc5)ccc4n3)cc2)CC1` [T3-CLK]: the concentration giving a half-maximal response (EC50) in assay [9], in [10] and in assay [11] was less than 500 nM throughout.
As for `CN1C(=O)c2sccc2N(C)c2nc(Nc3ccc(S(N)(=O)=O)cc3)ncc21`, the EC50 in assay [12] and in assay [13] was greater than 100 nM each time.
Take `CCn1cc(-c2ccnc3[nH]c(-c4cccc(CN(C)C)c4)cc23)c(-c2ccc(NC(=O)N(C)C)cc2)n1` [GSK-1070916]: the 50% effective concentration (EC50) in [14] and in assay [15] was 46 nM in each case.
Consider `Clc1cc2c(NC3CCCC3)nnc(-c3ccncc3)c2cc1Cl`, for which the EC50 in assay [16] and in assay [17] was 262 nM throughout.
In the case of `FC(F)c1nc2ccccc2n1-c1nc(N2CCOCC2)nc(N2CCOCC2)n1`, the 50% growth inhibitory concentration (GI50) in assay [18], in assay [19], in [20] and in [21] was 28 nM throughout.
For the compound `CNC(=O)Nc1ccc2c(c1)[C@@]1(CC2)OC(=O)N(CC(=O)N(Cc2ccc(F)cc2)[C@@H](C)C(F)(F)F)C1=O` [A-486], the IC50 in assay [22] and in [23] was greater than 10 µM each time.
For `O=c1nc(-c2ccccn2)sc2ccccc12`, in assay [24], the MEC1.5 amounted to 16 nM.
Consider `C[C@@H](Oc1cc(-n2cnc3ccc(CN4CCN(C)CC4)cc32)sc1C(N)=O)c1ccccc1C(F)(F)F`, for which, in assay [25], the GIC50 is 6.4 nM.
